Measurements published in US20190135793A1, “HETEROCYCLIC INHIBITORS OF KDM5 FOR THE TREATMENT OF DISEASE” (Board of Regents, The University of Texas System, priority 2017, published 2019).
Where two headings read alike, the source gives them in different places.

Legend:
KDM5B = biological target: T1, KDM5B (Homo sapiens, UniProt Q9UGL1); experiment: biochemical
T1 construct: Full length of KDM5B and KDM4C protein were purchased from Active Motif; purchased Active Motif 31832
Protocol: (§1) KDM4C and KDM5B AlphaScreen Assay Material and Method
(§2) Compounds disclosed herein were (and can be) screened using the following assay.
Peptides used in all experiments were purchased from Anaspe. […] Final concentration of KDM5B and KDM4C used in the assay were 0.5 nM and 0.2 nM. Final concentration of peptides for 5B and 4C used in the assay were 3 nM.
(§3) 4 μL of KDM5B or KDM4C protein were added to 384-well OptiPlate by using multiflow, followed by 4 μl of either buffer or compound. Plates were sealed, spun down and incubated at RT for 15 min. 4 μl of biotinylated peptide was added to the plate, the plate was incubated at room temperature for 25 minutes (KDM5B) and 30 minutes (KDM4C) after sealed and spun down. Streptavidin donor beads and acceptor beads were diluted and mixed in the detection buffer with 7.5 mM EDTA, followed by adding 8 μl of acceptor and donor beads mix to the plate, before the plate was sealed and incubated at room temperature for 3 h or overnight at dark. The plate was read on Envision plate reader (PerkinElmer) using Alphascreen protocol. IC50s were calculated in GraphPad Prism 6.

KDM4C = biological target: T2, KDM4C (Homo sapiens, UniProt Q9H3R0); experiment: KDM4C AlphaScreen assay; type: biochemical; conditions: AlphaScreen; full length KDM4C 0.2 nM; biotinylated H3K9Me3 peptide 3 nM; 30 minutes at room temperature
T2 construct: Full length of KDM5B and KDM4C protein were purchased from Active Motif; purchased Active Motif 31858
T2 sequence (Q9H3R0 1-1056): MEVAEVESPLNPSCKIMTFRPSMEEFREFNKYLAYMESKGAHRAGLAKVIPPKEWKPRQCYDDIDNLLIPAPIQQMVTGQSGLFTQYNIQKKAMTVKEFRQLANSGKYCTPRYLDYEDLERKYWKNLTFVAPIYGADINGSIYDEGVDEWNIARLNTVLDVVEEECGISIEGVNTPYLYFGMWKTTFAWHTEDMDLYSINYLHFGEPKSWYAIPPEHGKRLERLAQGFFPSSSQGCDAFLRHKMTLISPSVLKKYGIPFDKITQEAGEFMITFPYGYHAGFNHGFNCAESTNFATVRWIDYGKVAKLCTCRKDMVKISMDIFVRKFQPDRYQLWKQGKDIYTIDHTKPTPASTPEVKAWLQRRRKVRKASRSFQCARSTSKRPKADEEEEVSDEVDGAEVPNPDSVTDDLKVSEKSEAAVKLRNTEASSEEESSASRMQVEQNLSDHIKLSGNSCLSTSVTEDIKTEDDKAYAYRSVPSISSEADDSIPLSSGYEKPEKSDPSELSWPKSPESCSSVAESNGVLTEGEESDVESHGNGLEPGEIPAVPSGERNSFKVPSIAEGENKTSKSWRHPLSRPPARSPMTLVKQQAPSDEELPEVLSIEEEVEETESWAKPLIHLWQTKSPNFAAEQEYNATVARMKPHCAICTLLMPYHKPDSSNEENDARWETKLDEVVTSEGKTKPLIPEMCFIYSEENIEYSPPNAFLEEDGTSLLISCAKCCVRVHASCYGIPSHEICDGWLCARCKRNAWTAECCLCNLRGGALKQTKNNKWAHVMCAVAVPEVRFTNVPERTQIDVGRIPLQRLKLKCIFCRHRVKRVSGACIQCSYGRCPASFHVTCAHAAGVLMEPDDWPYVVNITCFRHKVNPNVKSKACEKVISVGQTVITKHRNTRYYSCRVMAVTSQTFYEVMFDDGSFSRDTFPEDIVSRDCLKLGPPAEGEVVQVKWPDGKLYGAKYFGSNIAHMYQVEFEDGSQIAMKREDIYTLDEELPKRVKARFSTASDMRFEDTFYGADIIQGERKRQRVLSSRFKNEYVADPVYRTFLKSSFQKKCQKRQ
Protocol: as §1, §2
Peptides used in all experiments were purchased from Anaspe. Full length of KDM5B and KDM4C protein were purchased from Active Motif: KDM5B (cat#31832) and KDM4C (Cat #31858). Final concentration of KDM5B and KDM4C used in the assay were 0.5 nM and 0.2 nM. Final concentration of peptides for 5B and 4C used in the assay were 3 nM.
as §3, with “AlphaScreen assays was conducted as following protocol: buffer used to make compound plate or DMSO is composed of 50 mM HEPES pH 7.4, 0.003% Tween-20; buffer used to dilute enzyme is composed of 50 mM HEPES pH 7.4, 0.003% Tween-20, 0.01% BSA, 500 μM TCEP; and buffer used to dilute the substrate is composed of 50 mM HEPES pH 7.4, 0.003% Tween-20, (NH4)2Fe(SO4)2 15 μM, alpha-ketoglutaric acid 4 μM and L-ascorbic acid 100 μM. 4 μL” for “4 μL”

[1] = AlphaScreen, full length KDM5B 0.5 nM, biotinylated H3K4Me3 peptide 3 nM, 25 minutes at room temperature, read-out: KDM5B (IC50)

T1 sequence (Q9UGL1 whole entry): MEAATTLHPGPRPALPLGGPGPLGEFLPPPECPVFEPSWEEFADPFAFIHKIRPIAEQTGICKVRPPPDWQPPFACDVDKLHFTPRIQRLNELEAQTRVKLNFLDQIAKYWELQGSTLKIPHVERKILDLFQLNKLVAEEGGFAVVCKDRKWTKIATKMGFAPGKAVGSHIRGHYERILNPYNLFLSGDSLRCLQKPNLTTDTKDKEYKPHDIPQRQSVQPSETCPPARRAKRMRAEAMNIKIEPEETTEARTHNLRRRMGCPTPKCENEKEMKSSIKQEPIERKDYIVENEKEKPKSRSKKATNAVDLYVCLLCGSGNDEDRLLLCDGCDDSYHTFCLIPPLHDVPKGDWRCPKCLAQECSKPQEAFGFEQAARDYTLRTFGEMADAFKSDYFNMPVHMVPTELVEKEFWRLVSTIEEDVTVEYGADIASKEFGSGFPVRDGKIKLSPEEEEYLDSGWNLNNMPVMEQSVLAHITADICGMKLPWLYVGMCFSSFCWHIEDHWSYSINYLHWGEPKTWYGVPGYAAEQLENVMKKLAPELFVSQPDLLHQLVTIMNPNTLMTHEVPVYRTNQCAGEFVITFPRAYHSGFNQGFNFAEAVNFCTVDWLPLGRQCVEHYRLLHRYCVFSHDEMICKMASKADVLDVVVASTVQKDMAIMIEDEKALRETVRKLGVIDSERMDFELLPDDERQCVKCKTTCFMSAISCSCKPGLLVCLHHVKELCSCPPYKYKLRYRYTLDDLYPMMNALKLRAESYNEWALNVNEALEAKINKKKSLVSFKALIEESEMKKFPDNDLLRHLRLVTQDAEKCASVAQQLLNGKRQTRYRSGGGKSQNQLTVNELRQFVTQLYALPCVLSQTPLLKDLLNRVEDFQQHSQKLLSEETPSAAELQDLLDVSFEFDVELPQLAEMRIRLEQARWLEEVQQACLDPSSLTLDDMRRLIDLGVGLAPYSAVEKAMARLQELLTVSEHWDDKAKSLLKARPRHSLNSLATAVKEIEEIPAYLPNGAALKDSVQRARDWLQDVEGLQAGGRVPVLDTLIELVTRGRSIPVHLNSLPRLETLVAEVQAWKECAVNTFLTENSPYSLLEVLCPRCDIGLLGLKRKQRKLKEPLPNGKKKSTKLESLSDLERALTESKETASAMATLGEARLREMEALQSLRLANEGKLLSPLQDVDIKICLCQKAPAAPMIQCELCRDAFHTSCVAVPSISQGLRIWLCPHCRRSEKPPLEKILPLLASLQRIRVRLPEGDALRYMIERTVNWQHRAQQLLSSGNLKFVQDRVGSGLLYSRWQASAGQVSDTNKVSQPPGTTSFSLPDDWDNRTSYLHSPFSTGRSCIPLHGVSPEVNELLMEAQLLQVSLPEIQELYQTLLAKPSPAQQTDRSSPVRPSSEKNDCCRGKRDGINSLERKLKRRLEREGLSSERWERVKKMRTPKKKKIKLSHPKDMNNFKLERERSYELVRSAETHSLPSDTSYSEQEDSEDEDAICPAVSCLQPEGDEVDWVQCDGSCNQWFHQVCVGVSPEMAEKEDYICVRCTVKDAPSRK

Row | IC50 (KDM5B) | IC50 (KDM4C) | IC50 (KDM5B; [1]) | SMILES
1 | 6 nM | 525 nM | – | CC(C)c1c(O)nc(-n2ccnc2)nc1-c1cnn(CC(=O)NCCN2CCC(O)CC2)c1 [Example 92, 2-{4-[6-Hydroxy-2-(1H-imidazol-1-yl)-5-(propan-2-yl)pyrimidin-4-yl]-1H-pyrazol-1-yl}-N-[2-(4-hydroxypiperidin-1-yl)ethyl]-acetamide]
2 | 15 nM | 996 nM | – | CCCn1cc(-c2nc(-n3ccnc3)nc(O)c2C(C)C)cn1 [Example 56, 2-(1H-Imidazol-1-yl)-5-(propan-2-yl)-6-(1-propyl-1H-pyrazol-4-yl)pyrimidin-4-ol]
3 | 16 nM | 470 nM | – | Cc1nc(-n2ccnc2)nc(O)c1C(C)C [Example 22, 2-(1H-imidazol-1-yl)-5-isopropyl-6-methylpyrimidin-4-ol]
4 | – | 2390 nM | 13 nM | CC(C)c1c(O)nc(-n2ccnc2)nc1-c1ccc(C(N)=O)nc1 [Example 9, 5-(6-hydroxy-2-(1H-imidazol-1-yl)-5-isopropylpyrimidin-4-yl)picolinamide]
5 | 12 nM | 881 nM | – | CC(C)c1c(O)nc(-n2ccnc2)nc1-c1cnn(CC(=O)N2CCC(C#N)C2)c1 (stereo not drawn) [Example 101, 1-(2-{4-[6-Hydroxy-2-(1H-imidazol-1-yl)-5-(propan-2-yl)pyrimidin-4-yl]-1H-pyrazol-1-yl}acetyl)-pyrrolidine-3-carbonitrile]
6 | 11 nM | 1150 nM | – | CC(C)c1c(O)nc(-n2ccnc2)nc1-c1cnn(CC(N)=O)c1 [Example 7, 2-(4-(6-Hydroxy-2-(1H-imidazol-1-yl)-5-isopropylpyrimidin-4-yl)-1H-pyrazol-1-yl)-acetamide]
7 | 15 nM | 909 nM | – | CC(C)c1c(O)nc(-n2ccnc2)nc1-c1cnn(CC(=O)N2CCCC(C#N)C2)c1 (stereo not drawn) [Example 103, 1-(2-{4-[6-Hydroxy-2-(1H-imidazol-1-yl)-5-(propan-2-yl)pyrimidin-4-yl]-1H-pyrazol-1-yl}acetyl)-piperidine-3-carbonitrile]
8 | 4 nM | 554 nM | – | CC(C)c1c(O)nc(-n2ccnc2)nc1-c1ccc(CN)cc1 [Example 42, 6-[4-(Aminomethyl)phenyl]-2-(1H-imidazol-1-yl)-5-(propan-2-yl)pyrimidin-4-ol]
9 | 19 nM | 1650 nM | – | CC(C)c1c(O)nc(-n2ccnc2)nc1-n1ccnc1 [Example 28b, 2,6-di(1H-imidazol-1-yl)-5-isopropylpyrimidin-4-ol]
10 | 22 nM | 2060 nM | – | CC(C)c1c(O)nc(-n2ccnc2)nc1-c1ccc(S(C)(=O)=O)cc1 [Example 69, 2-(1H-Imidazol-1-yl)-6-(4-methanesulfonylphenyl)-5-(propan-2-yl)pyrimidin-4-ol]
11 | 55 nM | 2410 nM | – | CC(C)c1c(O)nc(-n2ccnc2)nc1OCc1ccncn1 [Example 136, 2-(1H-Imidazol-1-yl)-5-(propan-2-yl)-6-(pyrimidin-4-ylmethoxy)pyrimidin-4-ol]
12 | 6 nM | 278 nM | – | CNCCN(C)C(=O)Cn1cc(-c2nc(-n3ccnc3)nc(O)c2C(C)C)cn1 [Example 95, 2-{4-[6-Hydroxy-2-(1H-imidazol-1-yl)-5-(propan-2-yl)pyrimidin-4-yl]-1H-pyrazol-1-yl}-N-methyl-N-[2-(methylamino)ethyl]-acetamide]
13 | – | 1660 nM | 17 nM | Cc1n[nH]cc1-c1nc(-n2ccnc2)nc(O)c1C(C)C [Example 60, 2-(1H-Imidazol-1-yl)-6-(5-methyl-1H-pyrazol-4-yl)-5-(propan-2-yl)pyrimidin-4-ol]
14 | 2530 nM | 3640 nM | – | Oc1nc(-c2cncs2)ncc1C(F)(F)F [Example 33, 2-(1,3-Thiazol-5-yl)-5-(trifluoromethyl)pyrimidin-4-ol]
15 | 26 nM | 2030 nM | – | CC(C)c1c(O)nc(-n2ccnc2)nc1-c1cnn(CC(=O)NCC(N)=O)c1 [Example 114, N-(Carbamoylmethyl)-2-{4-[6-hydroxy-2-(1H-imidazol-1-yl)-5-(propan-2-yl)pyrimidin-4-yl]-1H-pyrazol-1-yl}-acetamide]
16 | 24 nM | 2090 nM | – | CNC(=O)Cn1cc(-c2nc(-n3ccnc3)nc(O)c2C(C)C)cn1 [Example 113, 2-{4-[6-Hydroxy-2-(1H-imidazol-1-yl)-5-(propan-2-yl)pyrimidin-4-yl]-1H-pyrazol-1-yl)-N-methyl-acetamide]
17 | 9 nM | 502 nM | – | CC(C)c1c(O)nc(-n2ccnc2)nc1OCc1cccnc1 [Example 29, 2-(1H-Imidazol-1-yl)-5-isopropyl-6-(pyridin-3-ylmethoxy)pyrimidin-4-ol]
18 | 30 nM | 1330 nM | – | COC(=O)COc1nc(-n2ccnc2)nc(O)c1C(C)C [Example 133, Methyl 2-{[6-hydroxy-2-(1H-imidazol-1-yl)-5-(propan-2-yl)pyrimidin-4-yl]oxy}acetate]
19 | – | 4470 nM | 24 nM | CC(C)c1c(O)nc(-n2ccnc2)nc1-c1cccc(S(C)(=O)=O)c1 [Example 72, 2-(1H-Imidazol-1-yl)-6-(3-methanesulfonylphenyl)-5-(propan-2-yl)pyrimidin-4-ol]
20 | – | 1110 nM | 9 nM | CC(=O)NCc1ccc(-c2nc(-n3ccnc3)nc(O)c2C(C)C)cc1 [Example 43, N-({4-[6-Hydroxy-2-(1H-imidazol-1-yl)-5-(propan-2-yl)pyrimidin-4-yl]phenyl}-methyl)acetamide]
21 | 19 nM | 1340 nM | – | CC(C)c1c(O)nc(-n2ccnc2)nc1-c1cnn(C2CCCC2)c1 [Example 67, 6-(1-Cyclopentyl-1H-pyrazol-4-yl)-2-(1H-imidazol-1-yl)-5-(propan-2-yl)pyrimidin-4-ol]
22 | – | 10000 nM | 1130 nM | CC(C)Cc1ccc(-c2nc(-n3ccnc3)nc(O)c2C(C)C)cc1 [Example 86, 2-(1H-Imidazol-1-yl)-6-[4-(2-methylpropyl)phenyl]-5-(propan-2-yl)pyrimidin-4-ol]
23 | – | 8260 nM | 563 nM | CC(C)c1c(O)nc(-n2ccnc2-c2ncccn2)nc1Cl [Example 88, 6-Chloro-5-(propan-2-yl)-2-[2-(pyrimidin-2-yl)-1H-imidazol-1-yl]pyrimidin-4-ol]
24 | 151 nM | 7240 nM | – | CC(C)c1c(O)nc(-c2cncs2)nc1-c1cnn(C(C)C)c1 [Example 152, 5-(Propan-2-yl)-6-[1-(propan-2-yl)-1H-pyrazol-4-yl]-2-(1,3-thiazol-5-yl)pyrimidin-4-ol]
